≈ marks a conversion by molar mass, not a printed value.
Tests used:
Candida albicans = test: Antifungal activity against Candida albicans ATCC 10231 assessed as growth inhibition measured after 48 hrs by CLSI based method; type: functional
Bacillus cereus = test: Antibacterial activity against Bacillus cereus ATCC 4342 assessed as inhibition of microbial growth incubated for 24 hrs by microdilution method; type: functional
Bacillus subtilis = test: Antibacterial activity against Bacillus subtilis ATCC 6633 assessed as bacterial growth inhibition measured after 48 hrs by resazurin assay; type: functional
Staphylococcus aureus [1] = test: Antibacterial activity against Staphylococcus aureus ATCC 25923 assessed as reduction in bacterial growth incubated for 18 to 20 hrs by broth microdilution assay; type: functional; conditions: time 18-20 hrs
Aspergillus niger = test: Antifungal activity against Aspergillus niger assessed as reduction in fungal growth; type: functional
dengue virus type 1 = test: Antiviral activity Dengue virus 1; type: functional, organism-based
dengue virus type 2 = test: Antiviral activity Dengue virus 2; type: functional, organism-based
dengue virus type 3 = test: Antiviral activity Dengue virus 3; type: functional, organism-based
dengue virus type 4 = test: Antiviral activity Dengue virus 4; type: functional, organism-based
[2] = Cytotoxicity against African green monkey Vero cells; type: toxicity, cell-based; conditions: chlorocebus sabaeus
[3] = system: Human immunodeficiency virus 1; test: Antiviral activity against HIV-1 IIIB infected in […] cells assessed as reduction in viral replication measured for 72 hrs; type: functional, organism-based; conditions: Human immunodeficiency virus 1, IIIB
[4] = molecular target: T1, Human immunodeficiency virus type 1 reverse transcriptase (Human immunodeficiency virus 1, UniProt Q72547); test: Inhibition of HIV-1 Reverse transcriptase
[5] = Solubility in water; type: physicochemical
[6] = Oral bioavailability in rat; type: ADME, organism-based; conditions: in vivo
Hepatitis B virus = test: Antiviral activity against Hepatitis B virus infected in human HepG2.2.15 cells assessed as inhibition of HBV DNA production by qRT-PCR analysis; type: functional, organism-based
HepG2 2.2.15 = test: Cytotoxicity against human HepG2.2.15 cells assessed as reduction in cell growth by MTT assay; type: functional
[7] = system: Human immunodeficiency virus 1; test: Antiviral activity against HIV-1 IIIB infected in human C8166 cells assessed as reduction in virus-induced cytopathic effect incubated for 3 days by MTT assay; type: functional, organism-based; conditions: Human immunodeficiency virus 1, IIIB, C8166, 72 h
C8166 = test: Cytotoxicity against human C8166 cells assessed as reduction in cell viability incubated for 72 hrs by MTT assay; type: functional
[8] = Selectivity index, ratio of CC50 for human C8166 cells to EC50 for antiviral activity against HIV-1 IIIB infected in human C8166 cells; type: toxicity, cell-based; conditions: read-out: Ratio CC50/EC50
[9] = system: Human immunodeficiency virus 1; test: Antiviral activity against wild type HIV-1 IIIB infected in human MT4 cells; type: functional, organism-based; conditions: Human immunodeficiency virus 1, IIIB
[10] = Inhibition of Hepatitis C virus NS5B RNA dependent RNA polymerase; design: species or system Hepacivirus hominis
[11] = Cytotoxicity against African green monkey Vero cells assessed as reduction in cell viability measured after 96 hrs by MTT assay; type: toxicity, cell-based; conditions: chlorocebus sabaeus
Zika virus = test: Antiviral activity against Zika virus infected in Vero cells assessed as reduction in viral DNA replication; type: functional, organism-based
[12] = Cytotoxicity against African green monkey Vero cells assessed as reduction in cell growth measured after 96 hrs by MTT assay; type: toxicity, cell-based; conditions: chlorocebus sabaeus
[13] = molecular target: T1, Human immunodeficiency virus type 1 reverse transcriptase; test: Inhibition of recombinant HIV-1 reverse transcriptase associated RNA-dependent DNA polymerase activity
[14] = system: Human immunodeficiency virus 1; test: Antiviral activity against HIV-1 infected in human MT4 cells assessed as reduction in virus induced cytopathic effect measured for 4 days by MTT assay; type: functional, organism-based; conditions: Human immunodeficiency virus 1, MT4, 96 h
MT4 = test: Cytotoxicity against human MT4 cells assessed as reduction in cell viability by MTT assay; type: functional
[15] = Selectivity index, ratio of CC50 for human MT4 cells to EC50 for antiviral activity against HIV-1 infected in human MT4 cells; type: toxicity, cell-based; conditions: read-out: Ratio CC50/EC50
[16] = Toxicity in African green monkey Vero cells assessed as reduction in cell viability incubated for 72 hrs by MTT assay; type: cell-based; conditions: chlorocebus sabaeus, read-out: TD50
Staphylococcus aureus [17] = test: Antibacterial activity against Staphylococcus aureus assessed as reduction in microbial growth measured for 18 hrs by CLSI based broth microdilution method; type: functional
[18] = Toxicity in human C8166 cells assessed as reduction in cell viability incubated for 72 hrs by MTT assay; type: cell-based; conditions: read-out: TD50
[19] = system: Human immunodeficiency virus 1; test: Antiviral wild type activity against HIV-1 IIIB infected in human C8166 cells assessed as reduction in virus-induced cytopathic effect incubated for 3 days by MTT assay; type: functional, organism-based; conditions: Human immunodeficiency virus 1, IIIB, C8166, 72 h
[20] = system: Human immunodeficiency virus 1; test: Antiviral wild type activity against HIV-1 Ba-L infected in human TZM-bl cells assessed as reduction in virus-induced cytopathic effect incubated for 3 days by MTT assay; type: functional, organism-based; conditions: Human immunodeficiency virus 1, Ba-L, 72 h
[21] = system: Human immunodeficiency virus 1; test: Antiviral wild type activity against HIV-1 TC-1 infected in human PBMC cells assessed as reduction in virus-induced cytopathic effect incubated for 3 days by MTT assay; type: functional, organism-based; conditions: Human immunodeficiency virus 1, TC-1, PBMC, 72 h
[22] = system: Human immunodeficiency virus 1; test: Antiviral wild type activity against HIV-1 WAN infected in human PBMC cells assessed as reduction in virus-induced cytopathic effect incubated for 3 days by MTT assay; type: functional, organism-based; conditions: Human immunodeficiency virus 1, WAN, 72 h
[23] = system: Human immunodeficiency virus 1; test: Antiviral […] activity against HIV-1 A17 harboring reverse transcriptase K103N/Y181C double mutant infected in human C8166 cells assessed as reduction in virus-induced cytopathic effect incubated for 3 days by MTT assay; type: functional, organism-based; conditions: Human immunodeficiency virus 1, A17, C8166, 72 h
[24] = Cytotoxicity against African green monkey Vero cells assessed as reduction in cell viability incubated for 72 hrs by MTT assay; type: toxicity, cell-based; conditions: chlorocebus sabaeus
[25] = Selectivity index, ratio of CC50 for Vero cells to EC50 for antiviral activity against HIV-1 infected in Vero cells; type: toxicity, cell-based; conditions: monkey, read-out: Ratio CC50/EC50

CCc1c(Cc2ccc3c(c2)OCO3)nc(SCCCN2C(=O)c3ccccc3C2=O)[nH]c1=O
MIC (Candida albicans): 25 µg/mL (≈ 52.4 µM) | MIC (Bacillus cereus): 75 µg/mL | MIC (Bacillus subtilis): 100 µg/mL (≈ 209 µM) | MIC (Staphylococcus aureus [1]): 25 µg/mL (≈ 52.4 µM) | MIC (Aspergillus niger): 75 µg/mL (≈ 157 µM)

CCc1c(CC2CCCCC2)nc(SCc2n[nH]c(-c3ccc(F)cc3)c2Cl)[nH]c1=O
EC50 (dengue virus type 1): 17.5 µM | EC50 (dengue virus type 2): 13.2 µM | EC50 (dengue virus type 3): 6.8 µM | EC50 (dengue virus type 4): 11.4 µM | CC50 [2]: > 200 µM

CCc1c(Cc2ccc3c(c2)OCO3)nc(SCCN(C)C)[nH]c1=O
MIC (Candida albicans): 50 µg/mL (≈ 138 µM) | MIC (Bacillus cereus): 100 µg/mL | MIC (Bacillus subtilis): 50 µg/mL (≈ 138 µM) | MIC (Staphylococcus aureus [1]): 25 µg/mL (≈ 69.2 µM) | MIC (Aspergillus niger): 75 µg/mL (≈ 207 µM)

CCc1c(CC2CCCCC2)nc(SCC(=O)c2ccc(OP(=O)(OC)OC)cc2)[nH]c1=O
EC50 [3]: 0.01 µM | IC50 [4]: 0.75 µM | solubility [5]: 6.4 µM (≈ 3.17 µg/mL) | bioavailability [6]: 14.6%

O=c1[nH]c(SC2OC[C@H](O)[C@@H](O)[C@@H]2O)nc(Cc2ccccc2)c1Cc1ccccc1 (some centres undefined)
EC50 (Hepatitis B virus): 0.2 µM | CC50 (HepG2 2.2.15): > 100 µM

CCc1c(CC23CC4CC(CC(C4)C2)C3)nc(SCC(=O)c2ccccc2)[nH]c1=O
EC50 [7]: 0.19 µM | CC50 (C8166): 20.4 µM | selectivity ratio [8]: 107 | EC50 [9]: 0.19 µM

CCc1c(CC2CCCCC2)nc(SCC(=O)Nc2cc(F)cc(F)c2)[nH]c1=O
IC50 [10]: 0.089 µM | CC50 at 96 h [11]: > 10 µM | EC50 (Zika virus): > 50 µM | CC50 at 96 h [12]: 60.2 µM

CCC(C)Oc1nc(N)cc(S(=O)(=O)c2cccc(C)c2)n1 (centres undefined)
IC50 [13]: 26.5 µM | EC50 [14]: 4.7 µM | CC50 (MT4): > 200 µM | selectivity ratio [15]: > 43

CCc1c(CC23CC4CC(CC(C4)C2)C3)nc(SCC(=O)c2ccc(OC)cc2)[nH]c1=O
EC50 [7]: 0.1 µM | CC50 (C8166): 17.2 µM | selectivity ratio [8]: 172 | EC50 [9]: 0.1 µM

COc1ccc(C(Cl)(Cl)c2cc(Cl)nc(OC)n2)cc1
CC50 at 72 h [16]: 12.5 µg/mL (≈ 37.5 µM) | MIC (Staphylococcus aureus [17]): 6.2 µg/mL | CC50 at 72 h [18]: 25 µg/mL (≈ 74.9 µM)

CCc1c(CC2CCCCC2)nc(SCc2cc(-c3ccc(SC)cc3)[nH]n2)[nH]c1=O
EC50 [7]: 0.011 µM | EC50 [19]: 0.018 µM | EC50 [20]: 0.193 µM | EC50 [21]: 0.055 µM | EC50 [22]: 0.165 µM | EC50 [23]: 4.87 µM

Cc1c(Sc2ccccc2)n(COCCO)c(=O)[nH]c1=O [HEPT]
EC50 [3]: 7 µM | CC50 at 72 h [24]: 740 µM | selectivity ratio [25]: 106

— ChEMBL document CHEMBL6115028, “An Amazing 30-Year Journey around the DABO Family: A Medicinal Chemistry Lesson on a Versatile Class of Non-nucleoside HIV-1 Reverse Transcriptase Inhibitors” (J Med Chem, 2025)
